Some results are limits rather than exact numbers.

Sequence of human σ1 receptor (Q99720 whole entry): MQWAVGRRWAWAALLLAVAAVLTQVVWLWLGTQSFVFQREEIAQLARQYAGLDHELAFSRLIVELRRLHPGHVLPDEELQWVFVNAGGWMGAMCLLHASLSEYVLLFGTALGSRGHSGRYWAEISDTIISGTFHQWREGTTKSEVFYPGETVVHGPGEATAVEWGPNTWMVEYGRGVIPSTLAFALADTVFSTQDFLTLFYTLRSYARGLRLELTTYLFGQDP

The target of this assay is human σ1 receptor (Homo sapiens (Human), UniProt Q99720). Put plainly: Human σ1 receptor radioligand assay ([3H](+)-pentazocine, transfected HEK-293 membranes). To be noted: binding to the σ1 receptor expressed as Ki, [3H](+)-pentazocine 5 nM. As for the experimental part:
Human σ1 Receptor Radioligand Assay
To investigate binding properties of test compounds to human σ1 receptor, transfected HEK-293 membranes and [^3H](+)-pentazocine (Perkin Elmer, NET-1056), as the radioligand, were used. The assay was carried out with 7 μg of membrane suspension, 5 nM of [^3H](+)-pentazocine in either absence or presence of either buffer or 10 μM Haloperidol for total and non-specific binding, respectively. Binding buffer contained Tris-HCl 50 mM at pH 8. Plates were incubated at 37° C. for 120 minutes. After the incubation period, the reaction mix was then transferred to MultiScreen HTS, FC plates (Millipore), filtered and plates were washed 3 times with ice-cold 10 mM Tris-HCL (pH7.4). Filters were dried and counted at approximately 40% efficiency in a MicroBeta scintillation counter (Perkin-Elmer) using EcoScint liquid scintillation cocktail
Broadly, the Ki is the dissociation constant of the complex between target and ligand, obtained from inhibition or displacement. A lower Ki goes with higher affinity. Turning to `COc1ccc(CN2CC(C3CCN(CCc4ccccc4)CC3)OC3(CC3)C2=O)cc1` (stereo not shown) [Example 1, 7-(4-Methoxybenzyl)-5-(1-phenethylpiperidin-4-yl)4-oxa-7-azaspiro[2.5]octan-8-one], the inhibition constant Ki was at least 500 nM.
The result for `O=C(c1ccccc1)N1CC(C2CCN(CCc3ccccc3)CC2)OC2(CC2)C1` (stereo not shown) [Example 2, (5-(1-phenethylpiperidin-4-yl)-4-oxa-7-azaspiro[2.5]octan-7-yl)(phenyl)methanone] reads below 500 nM; that for `COc1ccc(CN2CC(C3CCN(Cc4ccccc4)CC3)OC3(CC3)C2=O)cc1` (stereo not shown) [Example 3, 5-(1-Benzylpiperidin-4-yl)-7-(4-methoxybenzyl)-4-oxa-7-azaspiro[2.5]octan-8-one], below 500 nM.
The result for `O=C(c1ccccc1)N1CC(C2CCN(Cc3ccccc3)CC2)OC2(CC2)C1` (stereo not shown) [Example 4, (5-(1-benzylpiperidin-4-yl)-4-oxa-7-azaspiro[2.5]octan-7-yl)(phenyl)methanone] reads below 100 nM.
`CCN1CC(C2CCN(Cc3ccccc3)CC2)OC2(CC2)C1=O` (stereo not shown) [Example 5, 5-(1-benzylpiperidin-4-yl)-7-ethyl-4-oxa-7-azaspiro[2.5]octan-8-one] registered a Ki below 100 nM.
The result for `CCN1CCC(C2CN(Cc3ccc(OC)cc3)C(=O)C3(CC3)O2)CC1` (stereo not shown) [Example 6, 5-(1-ethylpiperidin-4-yl)-7-(4-methoxybenzyl)-4-oxa-7-azaspiro[2.5]octan-8-one] reads at least 500 nM; that for `CCN1CC(C2CCN(CCc3ccccc3)CC2)OC2(CC2)C1=O` (stereo not shown) [Example 7, 7-Ethyl-5-(1-phenethylpiperidin-4-yl)-4-oxa-7-azaspiro[2.5]octan-8-one], below 500 nM; that for `CC(C)N1CC(C2CCN(CCc3ccccc3)CC2)OC2(CC2)C1=O` (stereo not shown) [Example 8, 7-isopropyl-5-(1-phenethylpiperidin-4-yl)-4-oxa-7-azaspiro[2.5]octan-8-one], below 500 nM.
As for `O=C1N(c2ccccc2)CC(C2CCN(CCc3ccccc3)CC2)OC12CC2` (stereo not shown) [Example 9, 5-(1-Phenethylpiperidin-4-yl)-7-phenyl-4-oxa-7-azaspiro[2.5]octan-8-one], the inhibitory constant (Ki) is at least 500 nM.
In turn, `O=C1N(c2ccccc2)CC(C2CCN(Cc3ccccc3)CC2)OC12CC2` (stereo not shown) [Example 10, 5-(1-benzylpiperidin-4-yl)-7-phenyl-4-oxa-7-azaspiro[2.5]octan-8-one] registered a Ki below 500 nM.
The result for `CCN1CC(C2CCN(CCc3ccccc3)CC2)OC2(CC2)C1` (stereo not shown) [Example 11, 7-Ethyl-5-(1-phenethylpiperidin-4-yl)-4-oxa-7-azaspiro[2.5]octane] reads below 500 nM.
With `COc1ccc(CN2CC(C3CCN(Cc4ccccc4)CC3)OC3(CC3)C2)cc1` (stereo not shown) [Example 12, 5-(1-benzylpiperidin-4-yl)-7-(4-methoxybenzyl)-4-oxa-7-azaspiro[2.5]octane] the figure was below 100 nM; with `COc1ccc(CN2CC(C3CCN(CCc4ccccc4)CC3)OC3(CC3)C2)cc1` (stereo not shown) [Example 13, 7-(4-methoxybenzyl)-5-(1-phenethylpiperidin-4-yl)-4-oxa-7-azaspiro[2.5]octane], at least 500 nM; with `CCN1CC(C2CCN(Cc3ccccc3)CC2)OC2(CC2)C1` (stereo not shown) [Example 14, 5-(1-benzylpiperidin-4-yl)-7-ethyl-4-oxa-7-asazaspiro[2.5]octane], below 100 nM.
With `COc1ccc(CN2CC(C3CCN(CC(C)C)CC3)OC3(CC3)C2=O)cc1` (stereo not shown) [Example 15, 5-(1-isobutylpiperidin-4-yl)-7-(4-methoxybenzyl)-4-oxa-7-azaspiro[2.5]octan-8-one] the figure was at least 500 nM; with `COc1ccc(CN2CC(C3CCN(CCC(C)C)CC3)OC3(CC3)C2=O)cc1` (stereo not shown) [Example 16, 5-(1-isopentylpiperidin-4-yl)-7-(4-methoxybenzyl)-4-oxa-7-azaspiro[2.5]octan-8-one], below 500 nM; with `COc1ccc(CN2CC(C3CCN(Cc4ccccc4)CC3)OCC2=O)cc1` (stereo not shown) [Example 21, 6-(1-benzylpiperidin-4-yl)-4-(4-methoxybenzyl)morpholin-3-one], below 500 nM.
Take `CCN1CC(C2CN(CCC(C)C)C2)OC2(CC2)C1=O` (stereo not shown) [Example 22, 7-ethyl-5-(1-isopentylazetidin-3-yl)-4-oxa-7-azaspiro[2.5]octan-8-one]: the inhibition constant (Ki) is below 500 nM.
The result for `CCN1C[C@@H](C2CCN(Cc3ccccc3)CC2)O[C@@H](C)C1=O` [Example 23, (2S,6R)-6-(1-benzylpiperidin-4-yl)-4-ethyl-2-methylmorpholin-3-one] reads at least 500 nM.
The result for `CCN1C[C@H](C2CCN(Cc3ccccc3)CC2)O[C@@H](C)C1=O` [Example 24, (2S,6S)-6-(1-benzylpiperidin-4-yl)-4-ethyl-2-methylmorpholin-3-one] reads at least 500 nM.
With `CCN1C[C@@H](C2CCN(Cc3ccccc3)CC2)O[C@H](C)C1=O` [Example 25, (2R,6R)-6-(1-benzylpiperidin-4-yl)-4-ethyl-2-methylmorpholin-3-one] the figure was at least 500 nM.
Regarding `CCN1C[C@H](C2CCN(Cc3ccccc3)CC2)O[C@H](C)C1=O` [Example 26, (2R,6S)-6-(1-benzylpiperidin-4-yl)-4-ethyl-2-methylmorpholin-3-one], the inhibitory constant (Ki) is at least 500 nM.
The result for `CCN1C[C@@H](C2CCN(Cc3ccc(F)cc3)CC2)O[C@@H](C)C1=O` [Example 27, (2S,6R)-4-ethyl-6-(1-(4-fluorobenzyl)piperidin-4-yl)-2-methylmorpholin-3-one] reads at least 500 nM; that for `CCN1C[C@H](C2CCN(Cc3ccc(F)cc3)CC2)O[C@@H](C)C1=O` [Example 28, (2S,6S)-4-ethyl-6-(1-(4-fluorobenzyl)piperidin-4-yl)-2-methylmorpholin-3-one], at least 500 nM; that for `CCN1C[C@@H](C2CCN(Cc3ccc(F)cc3)CC2)O[C@H](C)C1=O` [Example 29, (2R,6R)-4-ethyl-6-(1-(4-fluorobenzyl)piperidin-4-yl)-2-methylmorpholin-3-one], at least 500 nM.
Molecule `CCN1C[C@H](C2CCN(Cc3ccc(F)cc3)CC2)O[C@H](C)C1=O` [Example 30, (2R,6S)-4-ethyl-6-(1-(4-fluorobenzyl)piperidin-4-yl)-2-methylmorpholin-3-one] had an inhibition constant (Ki) of at least 500 nM.
`CCN1C[C@@H](C2CCN(Cc3ccc(C#N)cc3)CC2)O[C@@H](C)C1=O` [Example 31, 4-((4-((2R,6S)-4-ethyl-6-methyl-5-oxomorpholin-2-yl)piperidin-1-yl)methyl)benzonitrile] had a Ki of at least 500 nM.
In the case of `CCN1C[C@H](C2CCN(Cc3ccc(C#N)cc3)CC2)O[C@@H](C)C1=O` [Example 32, 4-((4-((2S,6S)-4-ethyl-6-methyl-5-oxomorpholin-2-yl)piperidin-1-yl)methyl)benzonitrile], the Ki is at least 500 nM.
Turning to `CCN1C[C@@H](C2CCN(Cc3ccc(C#N)cc3)CC2)O[C@H](C)C1=O` [Example 33, 4-((4-((2R,6R)-4-ethyl-6-methyl-5-oxomorpholin-2-yl)piperidin-1-yl)methyl)benzonitrile], the Ki is at least 500 nM.
The result for `CCN1C[C@H](C2CCN(Cc3ccc(C#N)cc3)CC2)O[C@H](C)C1=O` [Example 34, 4-((4-((2S,6R)-4-ethyl-6-methyl-5-oxomorpholin-2-yl)piperidin-1-yl)methyl)benzonitrile] reads at least 500 nM; that for `CCN1CC(C2CCN(Cc3ccc(F)cc3)CC2)OC2(CC2)C1=O` (stereo not shown) [Example 35, 7-ethyl-5-(1-(4-fluorobenzyl)piperidin-4-yl)-4-oxa-7-azaspiro[2.5]octan-8-one], at least 500 nM; that for `CCN1CC(C2CCN(Cc3ccc(C#N)cc3)CC2)OC2(CC2)C1=O` (stereo not shown) [Example 36, 4-((4-(7-ethyl-8-oxo-4-oxa-7-azaspiro[2.5]octan-5-yl)piperidin-1-yl)methyl)benzonitrile], at least 500 nM.
With `CC(C)N1CC(C2CCN(Cc3ccccc3)CC2)OC2(CC2)C1=O` (stereo not shown) [Example 37, 5-(1-benzylpiperidin-4-yl)-7-isopropyl-4-oxa-7-azaspiro[2.5]octan-8-one] the figure was at least 500 nM; with `CC(C)N1CC(C2CCN(Cc3ccc(F)cc3)CC2)OC2(CC2)C1=O` (stereo not shown) [Example 38, 5-(1-(4-fluorobenzyl)piperidin-4-yl)-7-isopropyl-4-oxa-7-azaspiro[2.5]octan-8-one], at least 500 nM; with `CC(C)N1CC(C2CCN(Cc3ccc(C#N)cc3)CC2)OC2(CC2)C1=O` (stereo not shown) [Example 39, 4-((4-(7-isopropyl-8-oxo-4-oxa-7-azaspiro[2.5]octan-5-yl)piperidin-1-yl)methyl)benzonitrile], at least 500 nM.
The result for `CCN1CC(C2CCN(CCC(C)C)CC2)OC2(CC2)C1=O` (stereo not shown) [Example 40, 7-ethyl-5-(1-isopentylpiperidin-4-yl)-4-oxa-7-azaspiro[2.5]octan-8-one] reads below 500 nM; that for `CCN1CC(C2CCN(Cc3ccccc3)CC2)OCC1=O` (stereo not shown) [Example 41, 6-(1-benzylpiperidin-4-yl)-4-ethylmorpholin-3-one], below 100 nM.
On to `CCN1CC(C2CN(Cc3ccccc3)C2)OC2(CC2)C1=O` (stereo not shown) [Example 42, 5-(1-benzylazetidin-3-yl)-7-ethyl-4-oxa-7-azaspiro[2.5]octan-8-one], for which the inhibition constant Ki was below 500 nM.
Turning to `CCN1CC(C2CN(CCc3ccccc3)C2)OC2(CC2)C1=O` (stereo not shown) [Example 43, 7-ethyl-5-(1-phenethylazetidin-3-yl)-4-oxa-7-azaspiro[2.5]octan-8-one], the inhibition constant (Ki) is below 500 nM.
With `CC(C)CCN1CCC(C2CN(c3ccccc3)C(=O)C3(CC3)O2)CC1` (stereo not shown) [Example 44, 5-(1-isopentylpiperidin-4-yl)-7-phenyl-4-oxa-7-azaspiro[2.5]octan-8-one] the figure was below 500 nM.

For the origin of these results see US10421750B2, “Substituted morpholine derivatives having activity against pain” (ESTEVE PHARMACEUTICALS, S.A., priority 2015, dated 2019).
